The source made the active and inactive calls. The rule behind the calls is not given here.
How the values were obtained:
HCT-116 [1] = assay: Induction of DNA double strand breaks in human HCT-116 cells assessed as gammaH2AX accumulation at 3 uM incubated for 48 hrs by immunofluorescence analysis; format: functional, cell-based
HCT-116 [2] = assay: Induction of apoptosis in human HCT-116 cells assessed as necrotic cells at 0.3 uM incubated for 48 hrs by AnnexinV-FITC/PI staining based flow cytometry (reference value: 0%); format: functional
HCT-116 [3] = assay: Induction of cell cycle arrest in human HCT-116 cells assessed as accumulation of cells at G0/G1 phase at 7.5 uM incubated for 72 hrs by PI staining based flow cytometry (reference value: 57.2%); format: functional
HCT-116 [4] = assay: Induction of apoptosis in human HCT-116 cells assessed as late apoptotic cells at 1.5 uM incubated for 48 hrs by AnnexinV-FITC/PI staining based flow cytometry (reference value: 0%); format: functional
HCT-116 [5] = assay: Induction of cell cycle arrest in human HCT-116 cells assessed as accumulation of cells at G2/M phase at 1.5 uM incubated for 72 hrs by PI staining based flow cytometry (reference value: 25.4%); format: functional
HCT-116 [6] = assay: Induction of DNA double-strand breaks in human HCT-116 cells assessed as gammaH2AX accumulation incubated for 48 hrs by western blot analysis; format: functional, cell-based; settings: dose 0.3-3 µM
[7] = Selectivity index, ratio of IC50 for cytotoxicity against human NCM460 cells to IC50 for antiproliferative activity against human HCT-116 cells; format: toxicity, cell-based; settings: NCM460 cells and HCT-116 cells, read-out: Ratio IC50
HCT-116 [8] = assay: Induction of apoptosis in human HCT-116 cells assessed as late apoptotic cells at 0.3 uM incubated for 48 hrs by AnnexinV-FITC/PI staining based flow cytometry (reference value: 0%); format: functional
HCT-116 [9] = assay: Induction of apoptosis in human HCT-116 cells assessed as late apoptotic cells at 0.3 uM incubated for 72 hrs by AnnexinV-FITC/PI staining based analysis (reference value: 0%); format: functional
HCT-116 [10] = assay: Induction of apoptosis in human HCT-116 cells assessed as viable cells at 0.3 uM incubated for 72 hrs by AnnexinV-FITC/PI staining based analysis (reference value: 98.95%); format: functional; settings: read-out: Activity
HCT-116 [11] = assay: Inhibition of cell migration in human HCT-116 cells at 3 uM incubated for 48 hrs by wound healing assay; format: functional
HCT-116 [12] = assay: Induction of apoptosis in human HCT-116 cells assessed as viable cells at 1.5 uM incubated for 72 hrs by AnnexinV-FITC/PI staining based analysis (reference value: 98.95%); format: functional; settings: read-out: Activity
HCT-116 [13] = assay: Induction of apoptosis in human HCT-116 cells assessed as viable cells at 0.3 uM incubated for 48 hrs by AnnexinV-FITC/PI staining based flow cytometry (reference value: 97.89%); format: functional; settings: read-out: Activity
HCT-116 [14] = assay: Induction of cell cycle arrest in human HCT-116 cells assessed as accumulation of cells at G0/G1 phase at 0.3 uM incubated for 48 hrs by PI staining based flow cytometry (reference value: 62.1%); format: functional
DLD-1 = assay: Antiproliferative activity against human DLD-1 cells assessed as reduction in cell viability incubated for 48 hrs by MTT assay; format: functional, cell-based; settings: DLD-1, 48 h
HCT-116 [15] = assay: Inhibition of colony formation in human HCT-116 cells pretreated for 48 hrs followed by replacement of fresh medium and measured every 3 days by crystal violet staining based analysis; format: functional, cell-based; settings: dose 0.3-3 µM
HCT-116 [16] = assay: Induction of apoptosis in human HCT-116 cells assessed as necrotic cells at 1.5 uM incubated for 48 hrs by AnnexinV-FITC/PI staining based flow cytometry (reference value: 0%); format: functional
SW480 = assay: cells; settings: Homo sapiens, SW480, 48 h
Description: Antiproliferative activity against human SW480 cells assessed as reduction in cell viability incubated for 48 hrs by MTT assay

HCT-116 [17] = assay: Induction of apoptosis in human HCT-116 cells assessed as early apoptotic cells at 0.3 uM incubated for 48 hrs by AnnexinV-FITC/PI staining based flow cytometry (reference value: 2.11%); format: functional
HCT-116 [18] = assay: Induction of apoptosis in human HCT-116 cells assessed as viable cells at 7.5 uM incubated for 72 hrs by AnnexinV-FITC/PI staining based analysis (reference value: 98.95%); format: functional; settings: read-out: Activity
HCT-116 [19] = assay: Induction of apoptosis in human HCT-116 cells assessed as viable cells at 1.5 uM incubated for 48 hrs by AnnexinV-FITC/PI staining based flow cytometry (reference value: 97.89%); format: functional; settings: read-out: Activity
HCT-116 [20] = assay: Induction of apoptosis in human HCT-116 cells assessed as early apoptotic cells at 1.5 uM incubated for 48 hrs by AnnexinV-FITC/PI staining based flow cytometry (reference value: 2.11%); format: functional
HCT-116 [21] = assay: Induction of mitochondrial membrane potential loss in human HCT-116 cells assessed as JC-1 aggregate level by measuring red fluorescence intensity at 1 uM incubated for 48 hrs by JC-1 staining based flow cytometry (reference value: 96.72%); format: functional
HCT-116 [22] = assay: Induction of apoptosis in human HCT-116 cells assessed as late apoptotic cells at 7.5 uM incubated for 72 hrs by AnnexinV-FITC/PI staining based analysis (reference value: 0%); format: functional
HCT-116 [23] = assay: Induction of apoptosis in human HCT-116 cells assessed as increase in cleaved PARP protein expression incubated for 48 hrs by western blot analysis; format: functional, cell-based; settings: dose 0.3-3 µM
HCT-116 [24] = assay: Induction of apoptosis in human HCT-116 cells assessed as necrotic cells at 7.5 uM incubated for 48 hrs by AnnexinV-FITC/PI staining based flow cytometry (reference value: 0%); format: functional
HCT-116 [25] = assay: Induction of cell cycle arrest in human HCT-116 cells assessed as accumulation of cells at G2/M phase at 1.5 uM incubated for 48 hrs by PI staining based flow cytometry (reference value: 24.7%); format: functional
HCT-116 [26] = assay: Induction of cell cycle arrest in human HCT-116 cells assessed as accumulation of cells at S phase at 1.5 uM incubated for 48 hrs by PI staining based flow cytometry (reference value: 14.5%); format: functional
HCT-116 [27] = assay: Induction of apoptosis in human HCT-116 cells assessed as early apoptotic cells at 7.5 uM incubated for 72 hrs by AnnexinV-FITC/PI staining based analysis (reference value: 1.05%); format: functional
HCT-116 [28] = assay: Induction of cell cycle arrest in human HCT-116 cells assessed as accumulation of cells at S phase at 0.3 uM incubated for 72 hrs by PI staining based flow cytometry (reference value: 16.7%); format: functional
HCT-116 [29] = assay: Induction of apoptosis in human HCT-116 cells assessed as early apoptotic cells at 1.5 uM incubated for 72 hrs by AnnexinV-FITC/PI staining based analysis (reference value: 1.05%); format: functional
HCT-116 [30] = assay: Induction of apoptosis in human HCT-116 cells assessed as increase in cleaved caspase-3 protein expression incubated for 48 hrs by western blot analysis; format: functional, cell-based; settings: dose 0.3-3 µM
HCT-116 [31] = assay: Induction of cell cycle arrest in human HCT-116 cells assessed as accumulation of cells at G2/M phase at 7.5 uM incubated for 48 hrs by PI staining based flow cytometry (reference value: 24.7%); format: functional
HCT-116 [32] = assay: Induction of apoptosis in human HCT-116 cells assessed as decrease in Bcl-2 protein expression incubated for 48 hrs by western blot analysis; format: functional, cell-based; settings: dose 0.3-3 µM
HCT-116 [33] = assay: Induction of apoptosis in human HCT-116 cells assessed as increase in Bax protein expression incubated for 48 hrs by western blot analysis; format: functional, cell-based; settings: dose 0.3-3 µM

For `NC(=O)c1ccccc1OCc1cccc(NC(=O)c2ccc(Br)cc2)c1`, the Activity (HCT-116 [1]) was “Active”, the Activity (HCT-116 [2]) was 0.23% and the Activity (HCT-116 [3]) was 34.4%. The Activity (HCT-116 [4]) was 2.97%, the Activity (HCT-116 [5]) was 35.5% and the Activity (HCT-116 [6]) was “Dose-Dependent Effect”. For the same compound, the selectivity ratio [7] was 1640, the Activity (HCT-116 [8]) was 0.25% and the Activity (HCT-116 [9]) was 0%. The viability at 0.3 µM (HCT-116 [10]) was 76.3%, the inhibition at 3 µM (HCT-116 [11]) was 43.2% and the viability at 1.5 µM (HCT-116 [12]) was 69.3%. It also gave a viability at 0.3 µM (HCT-116 [13]) of 90.4%, an Activity (HCT-116 [14]) of 60.7% and an IC50 (DLD-1) of 2.83 µM. The inhibition (HCT-116 [15]) was “Dose-Dependent Effect”, the Activity (HCT-116 [16]) was 1.38% and the IC50 (SW480) was 33.7 µM. For the same compound, the Activity (HCT-116 [17]) was 9.12%, the viability at 7.5 µM (HCT-116 [18]) was 20.5% and the viability at 1.5 µM (HCT-116 [19]) was 73%. For the same compound, the Activity (HCT-116 [20]) was 22.69%, the Activity (HCT-116 [21]) was 85.84% and the Activity (HCT-116 [22]) was 0.05%. The Activity (HCT-116 [23]) was “Dose-Dependent Effect”, the Activity (HCT-116 [24]) was 0.51% and the Activity (HCT-116 [25]) was 33%. For the same compound, the Activity (HCT-116 [26]) was 12.5%, the Activity (HCT-116 [27]) was 79.44% and the Activity (HCT-116 [28]) was 22.4%. The Activity (HCT-116 [29]) was 30.42%, the Activity (HCT-116 [30]) was “Dose-Dependent Effect” and the Activity (HCT-116 [31]) was 41%. For the same compound, the Activity (HCT-116 [32]) was “Dose-Dependent Effect” and the Activity (HCT-116 [33]) was “Dose-Dependent Effect”.

From ChEMBL document CHEMBL5346921, “Discovery of novel benzamide derivatives bearing benzamidophenyl and phenylacetamidophenyl scaffolds as potential antitumor agents via targeting PARP-1” (Eur J Med Chem, 2023)
